Assay results reported in patent US11078202B2, “β-lactamase inhibitor and use thereof” (priority 2018, dated 2021).
Where a name gives a salt, the structure may show the parent alone.

Key:
Format in all cases: cell-based
[1] = tested on: Klebsiella pneumoniae XNWB 0004; experiment: MIC assay of test compounds combined with ceftazidime (8 μg/mL); conditions: ceftazidime 8 μg/mL fixed
Method: (§1) The bacterial strains used for the minimum inhibitory concentration (MIC) test were frozen in a −80° C. ULT freezer and thawed 2 days before use. A small amount of frozen bacterial strains were scraped using a sterile inoculating loop, streaked onto a TSA solid culture dish for inoculation, and then cultured for 20-24 h at 35±2° C. in a normal atmospheric environment. 5-10 colonies with similar morphology were picked from the culture dish using a sterile inoculating loop and then re-streaked onto a suitable solid culture dish. Then the dish was placed into a normal incubator for culture for 20-24 h at 35±2° C. 5-10 single bacterial colonies were picked from the solid culture dish, resuspended in 500 μL of 0.9% NaCl, and adjusted to an OD600 of 0.1-0.15 with a spectrophotometer. The bacteria were then diluted 300-fold with 1.1×CAMHB. […] Dilution of test compounds: […] 2 μL of each compound in the dilution master plate of the test compounds was transferred to the corresponding well of the assay plates. In the mean time, 2 μL of 100% DMSO was transferred to the compound-free wells (GC and SC wells). (1) 8 μL of imipenem in the additive plate of imipenem was transferred to the corresponding wells of the assay plates; (2) 8 μL of ceftazidime in the additive plate of ceftazidime was transferred to the corresponding wells of the assay plates; (3) 8 μL of ampicillin in the additive plate of ampicillin was transferred to the corresponding wells of the assay plates. 90 μL of corresponding bacterial inocula were added to wells (except for SC wells) of the assay plates. After addition, the 6 assay plates were covered by sterile covers. The mixtures in the assay plates were centrifuged by a centrifuge at 1000 rpm for 30 s, and mixed uniformly by oscillating with a microplate oscillator at 800 rpm for 1 min, and then cultured in a common incubator for 16-20 h at 35±2° C. The minimum inhibitory concentration of each compound was recorded by reference to guidelines from the Clinical and Laboratory Standards Institute. […] The effect of the test compounds in combination with imipenem, ceftazidime, and ampicillin was also tested. […] The bacterial inocula in the assay plates were resuscitated from TSA and diluted in CAMHB, while growth controls (GC wells) and sterile controls (SC wells) were set up in the assay plates. The minimum inhibitory concentration of each compound combination against different bacteria was observed and recorded after the assay plates were incubated in a common incubator at 35±2° C. for 16-20 h, and the results are shown in Tables 1-3.

[2] = tested on: Klebsiella pneumoniae XNWB 0006; experiment: as above; conditions: ceftazidime 8 μg/mL fixed
Method: as §1

[3] = tested on: Pseudomonas aeruginosa XNWB 0008; experiment: as above; conditions: ceftazidime 8 μg/mL fixed
Method: as §1

[4] = tested on: Acinetobacter baumannii XNWB 0007; experiment: as above; conditions: ceftazidime 8 μg/mL fixed
Method: as §1

[5] = tested on: Klebsiella pneumoniae XNWB 0003; experiment: as above; conditions: ceftazidime 8 μg/mL fixed
Method: as §1

[6] = tested on: Klebsiella pneumoniae XNWB 0002; experiment: as above; conditions: ceftazidime 8 μg/mL fixed
Method: as §1

[7] = tested on: Klebsiella pneumoniae XNWB 0005; experiment: as above; conditions: ceftazidime 8 μg/mL fixed
Method: as §1

[8] = tested on: Klebsiella pneumoniae XNWB 0001; experiment: as above; conditions: ceftazidime 8 μg/mL fixed
Method: as §1

[9] = tested on: Klebsiella pneumoniae XNWB 0004; experiment: MIC assay of test compounds combined with imipenem (4 μg/mL); conditions: imipenem 4 μg/mL fixed
Method: as §1

[10] = tested on: Klebsiella pneumoniae XNWB 0006; experiment: as above; conditions: imipenem 4 μg/mL fixed
Method: as §1

[11] = tested on: Pseudomonas aeruginosa XNWB 0008; experiment: as above; conditions: imipenem 4 μg/mL fixed
Method: as §1

[12] = tested on: Acinetobacter baumannii XNWB 0007; experiment: as above; conditions: imipenem 4 μg/mL fixed
Method: as §1

[13] = tested on: Klebsiella pneumoniae XNWB 0003; experiment: as above; conditions: imipenem 4 μg/mL fixed
Method: as §1

[14] = tested on: Klebsiella pneumoniae XNWB 0002; experiment: as above; conditions: imipenem 4 μg/mL fixed
Method: as §1

[15] = tested on: Klebsiella pneumoniae XNWB 0005; experiment: as above; conditions: imipenem 4 μg/mL fixed
Method: as §1

[16] = tested on: Klebsiella pneumoniae XNWB 0001; experiment: as above; conditions: imipenem 4 μg/mL fixed
Method: as §1

| Structure (SMILES) | The minimum concentration of test compounds combined with ceftazidime (8 μg/mL) for bacteriostasis [1] | The minimum concentration of test compounds combined with ceftazidime (8 μg/mL) for bacteriostasis [2] | The minimum concentration of test compounds combined with ceftazidime (8 μg/mL) for bacteriostasis [3] | The minimum concentration of test compounds combined with ceftazidime (8 μg/mL) for bacteriostasis [4] | The minimum concentration of test compounds combined with ceftazidime (8 μg/mL) for bacteriostasis [5] | The minimum concentration of test compounds combined with ceftazidime (8 μg/mL) for bacteriostasis [6] | The minimum concentration of test compounds combined with ceftazidime (8 μg/mL) for bacteriostasis [7] | The minimum concentration of test compounds combined with ceftazidime (8 μg/mL) for bacteriostasis [8] | The minimum concentration of test compounds combined with imipenem (4 μg/mL) for bacteriostasis [9] | The minimum concentration of test compounds combined with imipenem (4 μg/mL) for bacteriostasis [10] | The minimum concentration of test compounds combined with imipenem (4 μg/mL) for bacteriostasis [11] | The minimum concentration of test compounds combined with imipenem (4 μg/mL) for bacteriostasis [12] | The minimum concentration of test compounds combined with imipenem (4 μg/mL) for bacteriostasis [13] | The minimum concentration of test compounds combined with imipenem (4 μg/mL) for bacteriostasis [14] | The minimum concentration of test compounds combined with imipenem (4 μg/mL) for bacteriostasis [15] | The minimum concentration of test compounds combined with imipenem (4 μg/mL) for bacteriostasis [16] |
| --- | --- | --- | --- | --- | --- | --- | --- | --- | --- | --- | --- | --- | --- | --- | --- | --- |
| O=C(NC1CCNC1)[C@@H]1CC2(CC2)[C@@H]2CN1C(=O)N2OS(=O)(=O)O (stereo partly drawn) [Example 28, (1R,4S)-6-oxo-4-(pyrrolidin-3-ylaminoformyl)-5,7-diazaspiro[bicyclo[3.2.1]octane-2,1′-cyclopropan]-7-yl sulfate] | B (B: 8-16 μg/mL) | A (A: <8 μg/mL) | A (A: <8 μg/mL) | C (C: 16-128 μg/mL) | A (A: <8 μg/mL) | A (A: <8 μg/mL) | A (A: <8 μg/mL) | A (A: <8 μg/mL) | A (A: <8 μg/mL) | A (A: <8 μg/mL) | A (A: <8 μg/mL) | C (C: 16-128 μg/mL) | A (A: <8 μg/mL) | A (A: <8 μg/mL) | A (A: <8 μg/mL) | A (A: <8 μg/mL) |
| N=C(N)N1CCC(NCCc2cc([C@@H]3CC4(CC4)[C@@H]4CN3C(=O)N4OS(=O)(=O)O)no2)CC1 [Example 47, (1R,4S)-4-(5-(2-((1-amidinopiperidin-4-yl)amino)ethyl)isoxazol-3-yl)-6-oxo-5,7-diazaspiro[bicyclo[3.2.1]octane-2,1′-cyclopropan]-7-yl sulfate] | C (C: 16-128 μg/mL) | B (B: 8-16 μg/mL) | C (C: 16-128 μg/mL) | C (C: 16-128 μg/mL) | C (C: 16-128 μg/mL) | A (A: <8 μg/mL) | C (C: 16-128 μg/mL) | B (B: 8-16 μg/mL) | A (A: <8 μg/mL) | A (A: <8 μg/mL) | A (A: <8 μg/mL) | C (C: 16-128 μg/mL) | A (A: <8 μg/mL) | A (A: <8 μg/mL) | A (A: <8 μg/mL) | A (A: <8 μg/mL) |
| NCC(O)c1nnc([C@@H]2CC3(CC3)[C@@H]3CN2C(=O)N3OS(=O)(=O)O)o1 (stereo partly drawn) [Example 9, (1R,4S)-4-(5-(2-amino-1-hydroxyethyl)-1,3,4-oxadiazol-2-yl)-6-oxo-5,7-diazaspiro [bicyclo[3.2.1]octane-2,1′-cyclopropan]-7-yl sulfate] | A (A: <8 μg/mL) | A (A: <8 μg/mL) | B (B: 8-16 μg/mL) | C (C: 16-128 μg/mL) | A (A: <8 μg/mL) | A (A: <8 μg/mL) | A (A: <8 μg/mL) | A (A: <8 μg/mL) | A (A: <8 μg/mL) | A (A: <8 μg/mL) | A (A: <8 μg/mL) | A (A: <8 μg/mL) | A (A: <8 μg/mL) | A (A: <8 μg/mL) | A (A: <8 μg/mL) | A (A: <8 μg/mL) |
| O=C(NC1CNC1)[C@@H]1CC2(CC2)[C@@H]2CN1C(=O)N2OS(=O)(=O)O [Example 29, (1R,4S)-4-(azetidin-3-ylaminoformyl)-6-oxo-5,7-diazaspiro[bicyclo[3.2.1]octane-2,1′-cyclopropan]-7-yl sulfate] | A (A: <8 μg/mL) | A (A: <8 μg/mL) | B (B: 8-16 μg/mL) | C (C: 16-128 μg/mL) | A (A: <8 μg/mL) | A (A: <8 μg/mL) | A (A: <8 μg/mL) | A (A: <8 μg/mL) | A (A: <8 μg/mL) | A (A: <8 μg/mL) | A (A: <8 μg/mL) | C (C: 16-128 μg/mL) | A (A: <8 μg/mL) | A (A: <8 μg/mL) | A (A: <8 μg/mL) | A (A: <8 μg/mL) |
